The test system of one test is TNFα. Put plainly: LPS-induced TNFα production in PMA-differentiated U937 cells (ELISA). Format: cell-based, human. The settings on record: for inhibition of TNFα production (in words): solithromycin and telithromycin at 100 μM, clarithromycin at 333 μM. Here is the method:
(§1) EXAMPLE. […] Cells. The human monocytic cell line U937 was obtained from the American Type Culture Collection (ATCC, Rockville, Md.). PBMCs from COPD patients were obtained from Brompton hospital and separated by AccuSPIN (Sigma-Aldrich). […] U937 cells were differentiated into adherent macrophage-like morphology by exposure to PMA (50 ng/ml) for 48 h in complete growth medium. Cell viability was assessed microscopically by trypan blue staining. Cell toxicity was determined by MTT assay as needed. This study was approved by the ethics committee of the Royal Brompton Hospitals, and all subjects gave written informed consent. Cytokine ELISA. TNFα and IL-8 concentrations in the supernatant of cell cultures were determined by sandwich ELISA according to the manufacturer's instructions (R&D Systems Europe, Abingdon, UK). Statistical analysis. The results were expressed as the mean±SEM. Comparisons of data in two groups were performed using the Student's t test or the Wilcoxon signed rank test. Multiple comparisons were made by one-way ANOVA with post hoc test (Dunnett's) as appropriate. The difference was considered significant at p<0.05. […] Anti-inflammatory effects of solithromycin in U937 cells.

The test system of another test is MMP9. Put plainly: MMP9 activity in PMA-stimulated U937 cells (gelatin zymography). The note with it: PMA stimulation. Format: cell-based, human. Here is the method: EXAMPLE. […] Cells. The human monocytic cell line U937 was obtained from the American Type Culture Collection (ATCC, Rockville, Md.). PBMCs from COPD patients were obtained from Brompton hospital and separated by AccuSPIN (Sigma-Aldrich). […] U937 cells were differentiated into adherent macrophage-like morphology by exposure to PMA (50 ng/ml) for 48 h in complete growth medium. Cell viability was assessed microscopically by trypan blue staining. Cell toxicity was determined by MTT assay as needed. This study was approved by the ethics committee of the Royal Brompton Hospitals, and all subjects gave written informed consent. Zymography. MMP9 enzyme activity was measured by gelatin zymography. […] After electrophoresis, gels were incubated and rinsed with Novex® zymogram renaturing buffer (Invitrogen) for 30 min at room temperature. The gels were then rinsed in Novex® zymogram developing buffer (Invitrogen) for 30 min at room temperature prior to overnight incubation in the developing buffer at 37° C. After incubation, the gels were stained using a Colloidal Blue Staining Kit (Invitrogen) to visualize the zymogen bands. Statistical analysis. The results were expressed as the mean±SEM. Comparisons of data in two groups were performed using the Student's t test or the Wilcoxon signed rank test. Multiple comparisons were made by one-way ANOVA with post hoc test (Dunnett's) as appropriate. The difference was considered significant at p<0.05.

In a further test the test system is phospholipase. Put plainly: Phospholipase inhibition in other cell lines. The note with it: for IC50: read-out: IC50 for phospholipase inhibition, other cell lines. Format: cell-based.
The test system of test [1] is Haemophilus parainfluenzae. Put plainly: MIC against Haemophilus parainfluenzae. The note with it: N 11. Format: cell-based.
The next test concerns Mycoplasma hominis. Kind of test: MIC against Mycoplasma hominis. Format: cell-based. The note with it: N 13.
Another test relates to CXCL8. Put plainly: LPS-induced CXCL8 (IL-8) production in PMA-differentiated U937 cells (ELISA). The note with it: for inhibition of CXCL8 (IL-8) production (in words): solithromycin and telithromycin at 100 μM, clarithromycin at 333 μM. Format: cell-based, human. Here is the method:
as §1

For the next test, the system named is P. acnes. Put plainly: MIC against P. acnes. Format: cell-based. The settings on record: for MIC50 / MIC90: Cutibacterium acnes.
The test system of test [2] is Immortalized human meibomian gland epithelial cells (HMGECs). Put plainly: HMGEC lysosome and neutral lipid accumulation, differentiation and proliferation. Format: cell-based. The settings on record: meibomian gland epithelial cells. The protocol:
EXAMPLE. Immortalized human meibomian gland epithelial cells (HMGECs) are cultured in the presence of vehicle or test compound, such as Soli (2, 10, or 20 μg/ml) for 1 to 7 days under proliferating (keratinocyte serum-free medium; KSFM) or differentiating (DMEM/F12 plus 10% fetal bovine serum) conditions. A positive control (epidermal growth factor and bovine pituitary extract for proliferation; Azi for differentiation) and a negative control (media only) are included with the experiments. Additional details are described in JAMA Ophthalmol 132(2): 226-228 (Feb. 1, 2014) and Current Eye Research, 1-6 (2017), each of which is incorporated herein by reference.
HMGECs are evaluated for cell number, neutral lipid content (LipidTox) and lysosome accumulation (LysoTracker). […] Strong lysosomal effects are observed with the 10 μg/ml dose of Soli (relative stimulation=30), on the first day of dosing, and those effects are statistically different (p<0.01) from the control group (relative stimulation=13). In contrast, the 10 μg/m1Azi dose is not statistically different from the control group (relative stimulation=18) until day 3. […] Compounds described herein, such a Soli, affect lysosome and lipid accumulation and differentiation of HMGECs. The effect of Soli on lysosome appearance is faster than that of Azi.

≈ marks a conversion by molar mass, not a printed value.

In the case of `CC[C@H]1OC(=O)[C@H](C)[C@@H](O[C@H]2C[C@@](C)(OC)[C@@H](O)[C@H](C)O2)[C@H](C)[C@@H](O[C@@H]2O[C@H](C)C[C@H](N(C)C)[C@H]2O)[C@](C)(O)C[C@@H](C)CN(C)[C@H](C)[C@@H](O)[C@]1(C)O` [Azithromycin, azithromycin], the “inhibition of TNFα production (in words)” value with TNFα is “did not inhibit”. In addition, the “inhibitory effects on MMP9 activity, lower than solithromycin” value in the test with MMP9 was found to be 10 fold. Besides, the “reversibility of phospholipase inhibition” value in the test with phospholipase (after dosing is stopped) is recorded as “remains unchanged for several days after dosing is stopped”. Besides, the IC50 in the test on phospholipase was 300 µM. In addition, the “MIC Range” value in test [1] is 0.5-2^ μg/mL; against Mycoplasma hominis it was 0.5-4^ μg/mL. The “inhibition of CXCL8 (IL-8) production (in words)” value (“inhibition of CXCL8” for short) in the test on CXCL8 was “did not inhibit”.

`CCCCCCCCCC(=O)N[C@@H](Cc1c[nH]c2ccccc12)C(=O)N[C@H](CC(N)=O)C(=O)N[C@@H](CC(=O)O)C(=O)N[C@@H]1C(=O)NCC(=O)N[C@@H](CCCN)C(=O)N[C@@H](CC(=O)O)C(=O)N[C@H](C)C(=O)N[C@@H](CC(=O)O)C(=O)NCC(=O)N[C@H](CO)C(=O)N[C@@H]([C@H](C)CC(=O)O)C(=O)N[C@@H](CC(=O)c2ccccc2N)C(=O)O[C@@H]1C` [Daptomycin]: the MIC50 against P. acnes (P. acnes) turned out to be 2 µg/mL (≈ 1.23 µM). Also, in the test on P. acnes (P. acnes (51 species)), the MIC90 was 4 µg/mL (≈ 2.47 µM) and the “MIC Range” value is 0.5 to 8 µg/mL.

As for Penicillin, the “MIC 50%” value with P. acnes (P. acnes) was no more than 0.03 µg/mL. For the same compound, in the test with P. acnes (P. acnes (51 species)), the “MIC 90%” value amounted to 0.06 µg/mL and the “MIC Range” value is recorded as ≤0.03-1^ μg/ml.

Turning to `CC[C@H]1OC(=O)[C@H](C)C(=O)[C@H](C)[C@@H](O[C@@H]2O[C@H](C)C[C@H](N(C)C)[C@H]2O)[C@](C)(OC)C[C@@H](C)C(=O)[C@H](C)[C@H]2N(CCCCn3cnc(-c4cccnc4)c3)C(=O)O[C@]12C` [Telithromycin], the “inhibition of TNFα production (in words)” value in the test on TNFα is “did not inhibit”. The “meibomian gland differentiation (in words)” value in test [2] was “do not cause clinically significant meibomian gland differentiation”. Further, the “inhibition of CXCL8” value in the test with CXCL8 is recorded as “did not inhibit”.

For the compound `CN[C@H](CC(C)C)C(=O)N[C@H]1C(=O)N[C@@H](CC(N)=O)C(=O)N[C@H]2C(=O)N[C@H]3C(=O)N[C@H](C(=O)N[C@H](C(=O)O)c4cc(O)cc(O)c4-c4cc3ccc4O)[C@H](O)c3ccc(c(Cl)c3)Oc3cc2cc(c3O[C@@H]2O[C@H](CO)[C@@H](O)[C@H](O)[C@H]2O[C@H]2C[C@](C)(N)[C@H](O)[C@H](C)O2)Oc2ccc(cc2Cl)[C@H]1O` [Vancomycin], in the test on P. acnes (P. acnes), the MIC50 was determined as 1 µg/mL (≈ 0.69 µM). Moreover, in the test on P. acnes (P. acnes (51 species)), the MIC90 stood at 1 µg/mL (≈ 0.69 µM) and the “MIC Range” value lay within 0.12 to 1 µg/mL.

As for `CC[C@H]1OC(=O)[C@H](C)C(=O)[C@H](C)[C@@H](O[C@@H]2O[C@H](C)C[C@H](N(C)C)[C@H]2O)[C@](C)(OC/C=C/c2cnc3ccccc3c2)C[C@@H](C)C(=O)[C@H](C)[C@H]2NC(=O)O[C@@]21C` [cethromycin], the “meibomian gland differentiation (in words)” value in test [2] was “do not cause clinically significant meibomian gland differentiation”.

For the compound `CC[C@H]1OC(=O)[C@H](C)[C@@H](O[C@H]2C[C@@](C)(OC)[C@@H](O)[C@H](C)O2)[C@H](C)[C@@H](O[C@@H]2O[C@H](C)C[C@H](N(C)C)[C@H]2O)[C@](C)(O)C[C@@H](C)C(=O)[C@H](C)[C@@H](O)[C@]1(C)O` [Erythromycin], the “inhibition of TNFα production (in words)” value with TNFα is “did not inhibit”. Moreover, in the test with MMP9, the “effect on MMP9 activity (in words)” value is recorded as “no effect”. In addition, in test [2], the “meibomian gland differentiation (in words)” value is “do not cause clinically significant meibomian gland differentiation”. For the same compound, in the test with phospholipase, the IC50 was greater than 400 µM. In the test with CXCL8, the “inhibition of CXCL8” value is reported as “did not inhibit”.

In the case of `CC[C@H]1OC(=O)[C@H](C)[C@@H](O[C@H]2C[C@@](C)(OC)[C@@H](O)[C@H](C)O2)[C@H](C)[C@@H](O[C@@H]2O[C@H](C)C[C@H](N(C)C)[C@H]2O)[C@](C)(OC)C[C@@H](C)C(=O)[C@H](C)[C@@H](O)[C@]1(C)O` [Clarithromycin, clarithromycin], the IC50 in the test on TNFα (Homo sapiens, U-937, LPS, PMA-differentiated U937 cells, read-out: IC50 on TNFα release) is 426 ± 63.9 µM; in the test on CXCL8 (Homo sapiens, U-937, LPS, PMA-differentiated U937 cells, read-out: IC50 on CXCL8 release), 506 ± 44 µM. Moreover, the “inhibition of TNFα production (in words)” value in the test on TNFα is given as “modest effects”. The “inhibitory effects on MMP9 activity, lower than solithromycin” value in the test with MMP9 amounted to 10 fold. In addition, the “meibomian gland differentiation (in words)” value in test [2] is reported as “do not cause clinically significant meibomian gland differentiation”. The “inhibition of CXCL8” value in the test on CXCL8 is “modest effects”.

For the origin of these results see US20210137961A1, “Compositions and Methods for Treating Dry Eye Diseases” (priority 2017, published 2021).
